Literature values as cited in patent US20250152503A1, “IMPLANTABLE DEVICES FOR THE SUSTAINED DELIVERY OF AN OPIOID ANTAGONIST AND METHODS FOR TREATING INFLAMMATORY, NEUROINFLAMMATORY AND METABOLIC DISORDERS” (Delpor, Inc., priority 2022, published 2025).

Experiments:
[1] = target: Toll-like receptor 4 (TLR4) (Homo sapiens, UniProt O00206+Q9Y6Y9)
[2] = 25° C.
[3] = oral, typical dose 50 mg/day

Toll-like receptor 4 (TLR4), sequence (O00206 24-839, species assumed): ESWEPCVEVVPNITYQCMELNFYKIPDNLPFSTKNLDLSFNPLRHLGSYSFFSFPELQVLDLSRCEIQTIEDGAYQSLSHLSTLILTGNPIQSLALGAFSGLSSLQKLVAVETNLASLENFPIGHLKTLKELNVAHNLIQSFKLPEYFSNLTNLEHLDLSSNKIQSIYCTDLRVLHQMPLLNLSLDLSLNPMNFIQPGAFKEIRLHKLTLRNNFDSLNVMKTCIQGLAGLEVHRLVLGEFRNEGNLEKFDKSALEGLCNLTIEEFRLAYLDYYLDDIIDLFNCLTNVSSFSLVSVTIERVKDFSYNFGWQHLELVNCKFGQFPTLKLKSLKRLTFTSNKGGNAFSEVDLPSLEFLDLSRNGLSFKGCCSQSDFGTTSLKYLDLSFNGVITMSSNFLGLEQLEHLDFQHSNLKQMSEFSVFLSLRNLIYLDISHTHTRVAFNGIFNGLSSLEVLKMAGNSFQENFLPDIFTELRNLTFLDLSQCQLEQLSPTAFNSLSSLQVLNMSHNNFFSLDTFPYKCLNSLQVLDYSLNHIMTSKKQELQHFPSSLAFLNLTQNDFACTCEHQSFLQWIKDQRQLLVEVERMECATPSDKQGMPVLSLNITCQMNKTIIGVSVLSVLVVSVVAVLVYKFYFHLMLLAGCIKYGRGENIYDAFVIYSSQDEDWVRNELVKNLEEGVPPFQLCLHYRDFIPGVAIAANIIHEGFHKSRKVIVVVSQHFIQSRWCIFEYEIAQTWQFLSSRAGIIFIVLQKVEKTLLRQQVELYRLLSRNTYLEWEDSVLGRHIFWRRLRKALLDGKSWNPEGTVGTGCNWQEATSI
Toll-like receptor 4 (TLR4), sequence (Q9Y6Y9 17-160 limits assumed, species assumed): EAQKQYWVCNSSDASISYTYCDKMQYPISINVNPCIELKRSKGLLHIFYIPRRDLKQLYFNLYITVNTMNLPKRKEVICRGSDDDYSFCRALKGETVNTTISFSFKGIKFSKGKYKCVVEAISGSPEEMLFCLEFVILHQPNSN

C=CCN1CC[C@]23c4c5ccc(O)c4O[C@H]2C(=O)CC[C@]3(O)[C@H]1C5 [(+)-naloxone]
antagonism of TLR4 signaling [1]: antagonize TLR4 signaling

O=C1CC[C@]2(O)[C@@H]3Cc4ccc(O)c5c4[C@]2(CCN3CC2CC2)[C@@H]1O5 [(+)-naltrexone]
antagonism of TLR4 signaling [1]: antagonize TLR4 signaling

C=C1CC[C@@]2(O)[C@H]3Cc4ccc(O)c5c4[C@@]2(CCN3CC2CC2)[C@H]1O5 [nalmefene]
reported aqueous solubility [2]: 140 µg/mL

O=C1CC[C@@]2(O)[C@H]3Cc4ccc(O)c5c4[C@@]2(CCN3CC2CC2)[C@H]1O5 [naltrexone]
reported aqueous solubility [2]: 667 µg/mL
average bioavailability [3]: 5-40%

(−)-nalmefene
antagonism of TLR4 signaling [1]: antagonize TLR4 signaling

(−)-naloxone
antagonism of TLR4 signaling [1]: antagonize TLR4 signaling

(−)-naltrexone
antagonism of TLR4 signaling [1]: antagonize TLR4 signaling
